Reference: patent US20220315554A1, “COMPOUNDS COMPRISING A […] LIGAND AND USE THEREOF” (priority 2019, published 2022)
Numbered stars: 1 amine (or outer) side, 2 acyl side, 3 side chain; on linkers, the order of the positions; unused ones are H or OH. Bridge positions count the residues as written; N and C are the ends. Square brackets hold non-standard residues; d marks the D form. Peptide text beside a SMILES is read from it. * marks the point of attachment. NH(CH2)3NH(O2Oc(DOTA)) = O=C(O)CN1CCN(CC(=O)O)CCN(CC(=O)NCCOCCOCC(=O)NCCCN*)CCN(CC(=O)O)CC1; X47 = O=C(O)CN1CCN(CC(=O)O)CCN(CC(=O)NCCCCCNC(=O)CCC(=O)NCCCOCCOCCOCCCN*)CCN(CC(=O)O)CC1; X2 = O=C(O)CN1CCN(CC(=O)O)CCN(CC(=O)NCCCOCCOCCOCCCN*)CCN(CC(=O)O)CC1; DOTA = O=C(O)CN1CCN(CC(=O)O)CCN(CC(=O)*)CCN(CC(=O)O)CC1; Phe(2-CF3) = N[C@@H](Cc1ccccc1C(F)(F)F)C(=O)O; Pyridine(3,5-bisCH2) = c1ncc(C[*:2])cc1C[*:1]; X12 = NCCNCC(CNCCN)C(=O)NCCCOCCOCCOCCCN*; mXylylene = c1cc(C[*:1])cc(C[*:2])c1; 3Pal = N[C@@H](Cc1cccnc1)C(=O)O; Suc = O=C(CCC(=O)[*:2])[*:1]; Hexanoyl = CCCCCC(=O)*

Columns and labels:
[1] = target: T1, FAP-expressing human WI-38 fibroblasts (Homo sapiens, UniProt Q12884); assay: Competitive FACS binding assay; conditions: pIC50 Category (FACS), competition with 3 nM Cy5-labeled compound, 4° C., 1 hour
T1 construct: FAP-expressing human WI-38 fibroblasts (ECACC) were cultured in EMEM; host or cells: WI-38 human fibroblasts
T1 sequence (Q12884 1-760): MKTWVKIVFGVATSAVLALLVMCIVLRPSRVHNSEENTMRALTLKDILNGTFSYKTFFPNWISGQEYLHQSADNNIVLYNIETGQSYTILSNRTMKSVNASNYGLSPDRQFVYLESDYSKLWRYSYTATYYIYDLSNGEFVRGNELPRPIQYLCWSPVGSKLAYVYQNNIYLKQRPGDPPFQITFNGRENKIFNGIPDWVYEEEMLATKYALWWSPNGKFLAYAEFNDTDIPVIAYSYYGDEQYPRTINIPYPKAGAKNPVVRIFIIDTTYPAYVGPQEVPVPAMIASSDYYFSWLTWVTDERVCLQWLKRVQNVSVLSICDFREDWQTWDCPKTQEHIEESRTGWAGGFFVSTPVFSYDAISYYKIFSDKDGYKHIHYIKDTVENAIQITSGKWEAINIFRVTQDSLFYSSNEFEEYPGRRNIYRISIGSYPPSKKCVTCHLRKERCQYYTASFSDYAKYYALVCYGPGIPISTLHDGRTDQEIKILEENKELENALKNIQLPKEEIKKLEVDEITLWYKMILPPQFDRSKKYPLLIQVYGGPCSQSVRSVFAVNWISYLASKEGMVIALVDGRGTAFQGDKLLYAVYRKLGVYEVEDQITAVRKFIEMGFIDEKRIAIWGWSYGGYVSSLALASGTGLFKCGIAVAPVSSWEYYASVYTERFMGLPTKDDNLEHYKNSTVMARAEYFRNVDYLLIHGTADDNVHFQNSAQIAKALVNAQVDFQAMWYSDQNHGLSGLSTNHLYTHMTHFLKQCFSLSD
Procedure: Cells were analyzed in an Attune NxT flow cytometer. […]

Human recombinant FAP = target: T2, Human recombinant FAP (Homo sapiens, UniProt Q12884); assay: FRET-based FAP protease activity assay; type: biochemical; set-up: purchased R&D systems 3715-SE; conditions: pIC50 Category (Activity), FRET substrate, 37° C.
T2 sequence (Q12884 1-760): T1 sequence (Q12884 1-760)

IC50 ([1]; WI-38 fibroblasts) [nM]	IC50 (Human recombinant FAP; recombinant human FAP) [nM]	Structure (SMILES)	IC50 [1] [nM]	IC50 (Human recombinant FAP) [nM]
< 10	< 10	CC(C)C[C@H](NC(=O)CCC(=O)NCCCOCCOCCOCCOCCCNC(=O)CN1CCN(CC(=O)O)CCN(CC(=O)O)CCN(CC(=O)O)CC1)C(=O)N[C@H]1CSCc2cccc(c2)CSC[C@@H](C(=O)N[C@@H](CC(=O)O)C(=O)N[C@@H](Cc2c[nH]cn2)C(=O)N[C@@H](Cc2ccccc2)C(=O)N[C@@H](CCCNC(=N)N)C(=O)N[C@@H](CC(=O)O)C(N)=O)NC(=O)[C@H](Cc2ccccc2)NC(=O)[C@H](CCC(=O)O)NC(=O)[C@H]2NC(=O)[C@@H]3C(CCN3C(=O)[C@@H]3CCCN3C1=O)[C@H]2O [3BP-3172, DOTA-Ttds-Leu-[Cys(3MeBn)-Pro-Pro-Thr-Glu-Phe-Cys]-Asp-His-Phe-Arg-Asp-NH2]		
< 10	< 10	CSCC[C@H](NC(C)=O)C(=O)N[C@H]1CSCc2cccc(c2)CSC[C@@H](C(=O)N[C@@H](CC(=O)O)C(=O)N[C@@H](Cc2c[nH]cn2)C(=O)N[C@@H](Cc2cccnc2)C(=O)N[C@@H](CCCNC(=N)N)C(=O)N[C@@H](CC(=O)O)C(N)=O)NC(=O)[C@H](Cc2ccccc2)NC(=O)[C@H](CCC(=O)O)NC(=O)[C@H]([C@@H](C)O)NC(=O)[C@@H]2CCCN2C(=O)[C@@H]2CCCN2C1=O [3BP-3192, Ac-Met-[Cys(3MeBn)-Pro-Pro-Thr-Glu-Phe-Cys]-Asp-His-Mpa-Arg-Asp-NH2] (Ac-MCPPTEFCDH[3Pal]RD-NH2; linker 2-8 via mXylylene)		
100 to 794	100 to 794	CSCC[C@H](NC(=O)CN1CCN(CC(=O)O)CCN(CC(=O)O)CCN(CC(=O)O)CC1)C(=O)N[C@H]1CSCc2cccc(c2)CSC[C@@H](C(=O)N[C@@H](CC(=O)O)C(=O)N[C@@H](Cc2c[nH]cn2)C(=O)N[C@@H](Cc2ccccc2)C(=O)N[C@@H](CCCNC(=N)N)C(=O)N[C@@H](CC(=O)O)C(N)=O)NC(=O)[C@H](Cc2ccccc2)NC(=O)[C@H](CCC(=O)O)NC(=O)[C@H]([C@@H](C)O)NC(=O)[C@@H]2CCCN2C(=O)[C@@H]2CCCN2C1=O [3BP-3170, DOTA-Met-[Cys(3MeBn)-Pro-Pro-Thr-Glu-Phe-Cys]-Asp-His-Phe-Arg-Asp-NH2] ({DOTA}-MCPPTEFCDHFRD-NH2; linker 2-8 via mXylylene)		
100 to 794	100 to 794	CSCC[C@H](NC(C)=O)C(=O)N[C@H]1CSCc2cccc(c2)CSC[C@@H](C(=O)N[C@@H](CC(=O)O)C(=O)N[C@@H](Cc2c[nH]cn2)C(=O)N[C@@H](Cc2ccccc2)C(=O)N[C@@H](CCCNC(=N)N)C(=O)N[C@@H](CC(=O)O)C(N)=O)NC(=O)[C@@H](Cc2ccccc2)NC(=O)[C@H](CCC(=O)O)NC(=O)[C@H]([C@@H](C)O)NC(=O)[C@@H]2CCCN2C(=O)[C@@H]2CCCN2C1=O [3BP-3180, Ac-Met-[Cys(3MeBn)-Pro-Pro-Thr-Glu-phe-Cys]-Asp-His-Phe-Arg-Asp-NH2] (Ac-MCPPTE[dF]CDHFRD-NH2; linker 2-8 via mXylylene)		
10 to 79.4	10 to 79.4	C[C@@H](O)[C@@H]1NC(=O)[C@@H]2CCCN2C(=O)[C@@H]2CCCN2C(=O)[C@@H](NC(=O)[C@H](CCC(=O)O)NC(=O)CCC(=O)NCCCOCCOCCOCCCNC(=O)CN2CCN(CC(=O)O)CCN(CC(=O)O)CCN(CC(=O)O)CC2)CSCc2cccc(c2)CSC[C@@H](C(=O)N[C@@H](CC(=O)O)C(=O)N[C@@H](Cc2c[nH]cn2)C(=O)N[C@@H](Cc2ccccc2)C(=O)N[C@@H](CCCNC(=N)N)C(=O)N[C@@H](CC(=O)O)C(N)=O)NC(=O)[C@H](Cc2ccccc2)NC(=O)[C@H](CCC(=O)O)NC1=O [3BP-3173, DOTA-Ttds-Glu-[Cys(3MeBn)-Pro-Pro-Thr-Glu-Phe-Cys]-Asp-His-Phe-Arg-Asp-NH2] ({X2-Suc}-ECPPTEFCDHFRD-NH2; linker 2-8 via mXylylene)		
100 to 794	100 to 794	CCCCCC(=O)N[C@H]1CSCc2cccc(c2)CSC[C@@H](C(=O)N[C@@H](CC(=O)O)C(N)=O)NC(=O)[C@H](Cc2ccccc2)NC(=O)[C@H](CCC(=O)NCCCNC(=O)COCCOCCNC(=O)CN2CCN(CC(=O)O)CCN(CC(=O)O)CCN(CC(=O)O)CC2)NC(=O)[C@H]([C@@H](C)O)NC(=O)[C@@H]2CCCN2C(=O)[C@@H]2CCCN2C1=O [3BP-3473, Hex-[Cys(3MeBn)-Pro-Pro-Thr-Glu(NH-Apr-O2O-DOTA')-Phe-Cys]-Asp-NH2] (Hexanoyl-CPPTE(NH(CH2)3NH(O2Oc(DOTA)))FCD-NH2; linker 1-7 via mXylylene)		

The next lines start with the compound.

Structure (SMILES)	IC50 ([1]; WI-38 fibroblasts) [nM]	IC50 (Human recombinant FAP; recombinant human FAP) [nM]	IC50 [1] [nM]	IC50 (Human recombinant FAP) [nM]
CCCCCC(=O)N[C@H]1CSCc2cccc(c2)CSC[C@@H](C(=O)N[C@@H](CC(=O)O)C(=O)NCCCOCCOCCOCCCNC(=O)CCC(=O)NCCCCCNC(=O)CN2CCN(CC(=O)O)CCN(CC(=O)O)CCN(CC(=O)O)CC2)NC(=O)[C@H](Cc2ccccc2)NC(=O)[C@H](CCC(N)=O)NC(=O)[C@H]([C@@H](C)O)NC(=O)[C@@H]2CCCN2C(=O)[C@@H]2CCCN2C1=O [3BP-3404, Hex-[Cys(3MeBn)-Pro-Pro-Thr-Gln-Phe-Cys]-Asp-Ttds-Ape(DOTA)] (Hexanoyl-CPPTQFCD-X47; linker 1-7 via mXylylene)	< 10	< 10		
CCCCCC(=O)N[C@H]1CSCc2cc(CSCCNC(=O)CN3CCN(CC(=O)O)CCN(CC(=O)O)CC3)cc(c2)CSC[C@@H](C(=O)O)NC(=O)[C@H](Cc2ccccc2)NC(=O)[C@H](CCC(N)=O)NC(=O)[C@H]([C@@H](C)O)NC(=O)[C@@H]2CCCN2C(=O)[C@@H]2CCCN2C1=O [3BP-4310, Hex-[Cys-(tMeBn(NOTA-AET))-Pro-Pro-Thr-Gln-Phe-Cys]-OH]			< 10	< 10
CCCCCC(=O)N[C@H]1CSCc2cc(CSCCNC(=O)CCC(=O)NCCCOCCOCCOCCCNC(=O)C(CNCCN)CNCCN)cc(c2)CSC[C@@H](C(=O)O)NC(=O)[C@H](Cc2ccccc2)NC(=O)[C@H](CCC(N)=O)NC(=O)[C@H]([C@@H](C)O)NC(=O)[C@@H]2CCCN2C(=O)[C@@H]2CCCN2C1=O [3BP-4299, Hex-[Cys-(tMeBn(N4Ac-Ttds-AET))-Pro-Pro-Thr-Gln-Phe-Cys]-OH]			< 10	< 10
C[C@@H](O)[C@@H]1NC(=O)[C@@H]2CCCN2C(=O)[C@@H]2CCCN2C(=O)[C@@H](NC(=O)[C@H](CCC(=O)O)NC(=O)CCC(=O)NCCCOCCOCCOCCCNC(=O)C(CNCCN)CNCCN)CSCc2cccc(c2)CSC[C@@H](C(=O)O)NC(=O)[C@H](Cc2ccccc2)NC(=O)[C@H](CCC(=O)O)NC1=O [3BP-4233, N4Ac-Ttds-Glu-[Cys-(3MeBn)-Pro-Pro-Thr-Glu-Phe-Cys]-OH] ({X12-Suc}-ECPPTEFC-OH; linker 2-8 via mXylylene)			100 to 794	> 1000
CCCCCC(=O)N[C@H]1CSCc2cc(CSCCNC(=O)CCOCCOCCOCCOCCOCCOCCNC(=O)CN(CCN(CCN(CC(=O)O)CC(=O)O)CC(=O)O)CC(=O)O)cc(c2)CSC[C@@H](C(=O)O)NC(=O)[C@H](Cc2ccccc2)NC(=O)[C@H](CCC(N)=O)NC(=O)[C@H]([C@@H](C)O)NC(=O)[C@@H]2CCCN2C(=O)[C@@H]2CCCN2C1=O [3BP-4353, Hex-[Cys-(tMeBn(DTPA2-PEG6-AET))-Pro-Pro-Thr-Gln-Phe-Cys]-OH]			10 to 79.4	10 to 79.4
CCCCCC(=O)N[C@H]1CSCc2cncc(c2)CSC[C@@H](C(=O)N[C@@H](CC(=O)O)C(N)=O)NC(=O)[C@H](Cc2ccccc2)NC(=O)[C@H](CCC(N)=O)NC(=O)[C@H]([C@@H](C)O)NC(=O)[C@@H]2CCCN2C(=O)[C@@H]2CCCN2C1=O [3BP-3519, Hex-[Cys(3Lut)-Pro-Pro-Thr-Gln-Phe-Cys]-Asp-NH2] (Hexanoyl-CPPTQFCD-NH2; linker 1-7 via Pyridine(3,5-bisCH2))	< 10	< 10		
CCCCCC(=O)N[C@H]1CSCc2cccc(c2)CSC[C@@H](C(=O)N[C@@H](CC(=O)O)C(N)=O)NC(=O)[C@H](Cc2ccccc2C(F)(F)F)NC(=O)[C@H](CCC(N)=O)NC(=O)[C@H]([C@@H](C)O)NC(=O)[C@@H]2CCCN2C(=O)[C@@H]2CCCN2C1=O [3BP-3409, Hex-[Cys(3MeBn)-Pro-Pro-Thr-Gln-Otf-Cys]-NH2] (Hexanoyl-CPPTQ[Phe(2-CF3)]CD-NH2; linker 1-7 via mXylylene)	10 to 79.4	< 10		
CCCCCC(=O)N[C@H]1CSCc2cc(CSCCNC(=O)CN3CCN(CC(=O)O)CCN(CC(=O)O)CCN(CC(=O)O)CC3)cc(c2)CSC[C@H](C(=O)O)NC(=O)[C@H](Cc2ccccc2)NC(=O)[C@H](CCC(N)=O)NC(=O)[C@H]([C@@H](C)O)NC(=O)[C@@H]2CCCN2C(=O)[C@@H]2CCCN2C1=O [3BP-4111, Hex-[Cys-(tMeBn(DOTA-AET))-Pro-Pro-Thr-Gln-Phe-D-Cys]-OH]			10 to 79.4	10 to 79.4
